The text below walks through data of ChEMBL document CHEMBL1128138, “The synthesis, and dopamine D2 and serotonin 5-HT3 receptor affinity of 3-aza analogues (pyridyl) of 4-amino-5-chloro-2-methoxybenzamides” (Bioorg Med Chem Lett, 1995).

Experiment [1] has as its target D(2) dopamine receptor (Homo sapiens, UniProt P14416). Nature of the experiment: Binding affinity towards dopamine D2 receptor.
The test system of experiment [2] is Rattus norvegicus. Nature of the experiment: Ability to inhibit the Bezold-Jarisch reflex by i.v. administration. The class given is functional. To be noted: iv, read-out: ID50 (the source's name).

D(2) dopamine receptor, sequence (P14416 whole entry): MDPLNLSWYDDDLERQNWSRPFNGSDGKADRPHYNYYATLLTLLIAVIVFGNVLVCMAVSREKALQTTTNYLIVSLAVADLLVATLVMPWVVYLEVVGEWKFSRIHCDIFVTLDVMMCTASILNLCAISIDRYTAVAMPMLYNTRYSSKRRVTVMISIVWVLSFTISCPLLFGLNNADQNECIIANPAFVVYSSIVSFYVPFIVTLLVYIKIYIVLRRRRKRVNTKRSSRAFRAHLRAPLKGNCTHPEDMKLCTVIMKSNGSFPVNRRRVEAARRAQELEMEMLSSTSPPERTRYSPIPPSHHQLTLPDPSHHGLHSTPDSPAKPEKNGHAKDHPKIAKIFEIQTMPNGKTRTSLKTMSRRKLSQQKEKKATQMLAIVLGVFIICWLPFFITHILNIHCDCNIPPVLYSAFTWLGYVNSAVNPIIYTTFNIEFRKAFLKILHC

One may read the Ki as the equilibrium dissociation constant of an inhibitor or competing ligand from its target. A high value points to weaker binding. In experiment [1], `COc1cc(N)c(Cl)cc1C(=O)NC1CC2CCCC(C1)N2Cc1ccccc1` (centres undefined) showed a Ki of 0.251 nM.

As for `COc1cc(N)c(Cl)cc1C(=O)NC1CC2CCCC(C1)N2C` (centres undefined), in experiment [2], the ED50 amounted to 0.4 µg/kg.

Compound `COc1nc(N)c(Cl)cc1C(=O)NC1CC2CCCC(C1)N2Cc1ccccc1` (centres undefined) showed a Ki in experiment [1] of 1.26 nM.

As to `COc1cc(N)c(Cl)cc1C(=O)NC1CC2CCC(C1)N2C` (centres undefined), in experiment [2], the ED50 came to 0.8 µg/kg.
